# Laboratory results reported in patent publication US9783537B2, “3-(4-ethylnylphenyl) pyridopyrimidinone compounds and process for preparation thereof useful as potential anticancer agents” (Council of Scientific & Industrial Research, priority 2013, dated 2017).
# Where two headings read alike, the source gives them in different places.
# Assays:
# CCRF-CEM = experiment: SRB 48 h growth assay, Leukemia CCRF-CEM; assay type: cell-based, human
# M14 = experiment: SRB 48 h growth assay, Melanoma M14; assay type: cell-based, human
# LOX IMVI = experiment: SRB 48 h growth assay, Melanoma LOX IMVI; assay type: cell-based, human
# NCI-H522 = experiment: SRB 48 h growth assay, Non-small Cell Lung NCI-H522; assay type: cell-based, human
# TK-10 = experiment: SRB 48 h growth assay, Renal TK-10; assay type: cell-based, human; conditions: TK-10, Renal
# SNB-19 = experiment: SRB 48 h growth assay, CNS SNB-19; assay type: cell-based, human; conditions: SNB-19, CNS
# [1] = test system: two prostate cancer cell line (PC-3, DU-145); experiment: in vitro anticancer activity, prostate panel; assay type: cell-based; conditions: Homo sapiens; two prostate cancer cell lines, exposure at least 48 h; read-out: GI50, range over panel
# HCT-116 = experiment: SRB 48 h growth assay, Colon HCT-116; assay type: cell-based, human; conditions: Homo sapiens, HCT-116, Colon
# UACC-62 = experiment: SRB 48 h growth assay, Melanoma UACC-62; assay type: cell-based, human; conditions: UACC-62, Melanoma
# PC-3 = experiment: SRB 48 h growth assay, Prostate PC-3; assay type: cell-based, human; conditions: PC-3, Prostate
# NCI-H23 = experiment: SRB 48 h growth assay, Non-small Cell Lung NCI-H23; assay type: cell-based, human
# MCF7 = experiment: SRB 48 h growth assay, Breast MCF7; assay type: cell-based, human
# MDA-MB-231/ATCC = experiment: SRB 48 h growth assay, Breast MDA-MB-231/ATCC; assay type: cell-based, human
# OVCAR-8 = experiment: SRB 48 h growth assay, Ovarian OVCAR-8; assay type: cell-based, human; conditions: OVCAR-8, Ovarian
# RXF393 = experiment: SRB 48 h growth assay, Renal RXF393; assay type: cell-based, human
# SK-MEL-5 = experiment: SRB 48 h growth assay, Melanoma SK-MEL-5; assay type: cell-based, human; conditions: SK-MEL-5, Melanoma
# [2] = test system: six leukemia cancer cell lines (CCRF-CEM, HL-60, K-562, MOLT-4, SR and RPMI-8226); experiment: in vitro anticancer activity, leukemia panel; assay type: cell-based; conditions: Homo sapiens, exposure at least 48 h, read-out: GI50, range over panel
# SW-620 = experiment: SRB 48 h growth assay, Colon SW-620; assay type: cell-based, human; conditions: Homo sapiens, SW-620, Colon
# [3] = in vitro anticancer activity, melanoma panel; assay type: cell-based; conditions: Homo sapiens; nine melanoma cell lines, exposure at least 48 h; read-out: GI50, range over panel
# [4] = in vitro anticancer activity, non-small cell lung panel; assay type: cell-based; conditions: Homo sapiens; nine non-small cell lung cancer cell lines, exposure at least 48 h; read-out: GI50, range over panel
# SNB-75 = experiment: SRB 48 h growth assay, CNS SNB-75; assay type: cell-based, human; conditions: SNB-75, CNS
# KM12 = experiment: SRB 48 h growth assay, Colon KM12; assay type: cell-based, human
# RPMI-8226 = experiment: SRB 48 h growth assay, Leukemia RPMI-8226; assay type: cell-based, human; conditions: RPMI-8226, Leukemia
# BT-549 = experiment: SRB 48 h growth assay, Breast BT-549; assay type: cell-based, human; conditions: BT-549, Breast
# A549/ATCC = experiment: SRB 48 h growth assay, Non-small Cell Lung A549/ATCC; assay type: cell-based, human
# HL-60(TB) = experiment: SRB 48 h growth assay, Leukemia HL-60(TB); assay type: cell-based, human
# MDA-MB-435 = experiment: SRB 48 h growth assay, Melanoma MDA-MB-435; assay type: cell-based, human; conditions: MDA-MB-435, Melanoma
# HS578T = experiment: SRB 48 h growth assay, Breast HS578T; assay type: cell-based, human
# [5] = Homo sapiens, read-out: Growth Inhibition GI50
# [6] = Homo sapiens, read-out: Log10 GI50 (converted)
# [7] = Homo sapiens, read-out: Log10 LC50 (converted)
# [8] = read-out: Growth Inhibition GI50
# [9] = read-out: Log10 GI50 (converted)
smiles,measurement,setting,value
"C#Cc1ccc(-n2c(/C=C/c3ccc4ccccc4c3)nc3ncccc3c2=O)cc1 [4s, (E)-3-(4-Ethynylphenyl)-2-(2-(naphthalen-2-yl)vinyl)pyrido[2,3-d]pyrimidin-4(3H)-one]",Log10 TGI50,CCRF-CEM,>−4.00
same,CC50,"CCRF-CEM; Homo sapiens, CCKF-CEM, read-out: Log10 LC50 (converted)",> 100000 nM
same,GI50,CCRF-CEM; [5],1530 nM
same,GI50,CCRF-CEM; [6],1510 nM
same,Log10 TGI50,M14,−5.36
same,GI50,M14; [5],2070 nM
same,GI50,M14; [6],2090 nM
same,CC50,M14; [7],4370 nM
same,Log10 TGI50,LOX IMVI,−5.51
same,GI50,LOX IMVI; [5],510 nM
same,GI50,LOX IMVI; [6],513 nM
same,CC50,LOX IMVI; [7],3090 nM
same,Log10 TGI50,NCI-H522,>−4.00
same,GI50,NCI-H522; [5],5110 nM
same,GI50,NCI-H522; [6],5130 nM
same,CC50,NCI-H522; [7],> 100000 nM
same,GI50,TK-10; [5],4040 nM
same,GI50,TK-10; [6],4070 nM
same,CC50,TK-10; [7],> 100000 nM
same,Log10 TGI50,TK-10,>−4.00
same,GI50,SNB-19; [5],2950 nM
same,CC50,SNB-19; [7],> 100000 nM
same,Log10 TGI50,SNB-19,>−4.00
same,GI50,[1],280 to 340 nM
same,GI50,HCT-116; [8],2220 nM
same,GI50,HCT-116; [9],2240 nM
same,GI50,UACC-62; [5],2490 nM
same,GI50,UACC-62; [6],2510 nM
same,CC50,UACC-62; [7],> 100000 nM
same,Log10 TGI50,UACC-62,>−4.00
same,GI50,PC-3; [5],2350 nM
same,GI50,PC-3; [6],2340 nM
same,CC50,PC-3; [7],> 100000 nM
same,Log10 TGI50,PC-3,>−4.00
same,Log10 TGI50,NCI-H23,>−4.00
same,GI50,NCI-H23; [5],6390 nM
same,GI50,NCI-H23; [6],6460 nM
same,LC50,NCI-H23; [7],> 100000 nM
same,Log10 TGI50,MCF7,>−4.00
same,GI50,MCF7; [5],2430 nM
same,GI50,MCF7; [6],2450 nM
same,CC50,MCF7; [7],> 100000 nM
same,Log10 TGI50,MDA-MB-231/ATCC,>−4.00
same,GI50,MDA-MB-231/ATCC; [5],3740 nM
same,GI50,MDA-MB-231/ATCC; [6],3720 nM
same,CC50,MDA-MB-231/ATCC; [7],> 100000 nM
same,GI50,OVCAR-8; [5],3050 nM
same,GI50,OVCAR-8; [6],3020 nM
same,CC50,OVCAR-8; [7],> 100000 nM
same,Log10 TGI50,OVCAR-8,>−4.00
same,Log10 TGI50,RXF393,−5.26
same,GI50,"RXF393; Homo sapiens, RXF 393, read-out: Growth Inhibition GI50",1790 nM
same,GI50,"RXF393; Homo sapiens, RXF 393, read-out: Log10 GI50 (converted)",1780 nM
same,CC50,"RXF393; Homo sapiens, RXF 393, read-out: Log10 LC50 (converted)",5500 nM
same,GI50,SK-MEL-5; [5],1160 nM
same,GI50,SK-MEL-5; [6],1150 nM
same,CC50,SK-MEL-5; [7],2510 nM
same,Log10 TGI50,SK-MEL-5,−5.60
same,GI50,[2],260 to 450 nM
same,GI50,SW-620; [8],2220 nM
same,GI50,SW-620; [9],2240 nM
same,GI50,[3],190 to 1210 nM
same,GI50,[4],180 to 700 nM
same,GI50,SNB-75; [5],3690 nM
same,GI50,SNB-75; [6],2950 nM
same,CC50,SNB-75; [7],> 100000 nM
same,Log10 TGI50,SNB-75,>−4.00
same,Log10 TGI50,KM12,>−4.00
same,GI50,KM12; [5],2950 nM
same,GI50,KM12; [6],2950 nM
same,CC50,KM12; [7],> 100000 nM
same,GI50,RPMI-8226; [5],450 nM
same,GI50,RPMI-8226; [6],447 nM
same,CC50,RPMI-8226; [7],> 100000 nM
same,Log10 TGI50,RPMI-8226,>−4.00
same,Log10 TGI50,BT-549,−5.26
same,GI50,BT-549; [5],1980 nM
same,GI50,BT-549; [6],2000 nM
same,CC50,BT-549; [7],5500 nM
same,Log10 TGI50,A549/ATCC,>−4.00
same,GI50,A549/ATCC; [5],2730 nM
same,GI50,A549/ATCC; [6],2750 nM
same,CC50,A549/ATCC; [7],> 100000 nM
same,Log10 TGI50,HL-60(TB),−5.05
same,GI50,HL-60(TB); [5],1660 nM
same,GI50,HL-60(TB); [6],1660 nM
same,CC50,HL-60(TB); [7],8910 nM
same,GI50,MDA-MB-435; [5],2060 nM
same,GI50,MDA-MB-435; [6],2040 nM
same,CC50,MDA-MB-435; [7],> 100000 nM
same,Log10 TGI50,MDA-MB-435,>−4.00
same,Log10 TGI50,HS578T,>−4.00
same,GI50,"HS578T; Homo sapiens, Hs-578T, read-out: Growth Inhibition GI50",7620 nM
same,GI50,"HS578T; Homo sapiens, Hs-578T, read-out: Log10 GI50 (converted)",7590 nM
same,CC50,"HS578T; Homo sapiens, Hs-578T, read-out: Log10 LC50 (converted)",> 100000 nM
